Experimental data reported in ChEMBL document CHEMBL1142309, “The discovery of GSK221149A: a potent and selective oxytocin antagonist” (Bioorg Med Chem Lett, 2008).
Values after ≈ are worked out from the molar mass of the structure shown. Where a SMILES comes first, the peptide text is derived from it. Bridges are numbered along the chain shown (N, C = ends). [ ]: non-standard residue; d: D form. Orn = NCCC[C@H](N)C(=O)O; Mpa = O=C(O)CCS

Tests used:
[1] = target: T1, Oxytocin receptor (Homo sapiens, UniProt P30559); experiment: Binding affinity to human oxytocin receptor
T1 sequence (P30559 whole entry): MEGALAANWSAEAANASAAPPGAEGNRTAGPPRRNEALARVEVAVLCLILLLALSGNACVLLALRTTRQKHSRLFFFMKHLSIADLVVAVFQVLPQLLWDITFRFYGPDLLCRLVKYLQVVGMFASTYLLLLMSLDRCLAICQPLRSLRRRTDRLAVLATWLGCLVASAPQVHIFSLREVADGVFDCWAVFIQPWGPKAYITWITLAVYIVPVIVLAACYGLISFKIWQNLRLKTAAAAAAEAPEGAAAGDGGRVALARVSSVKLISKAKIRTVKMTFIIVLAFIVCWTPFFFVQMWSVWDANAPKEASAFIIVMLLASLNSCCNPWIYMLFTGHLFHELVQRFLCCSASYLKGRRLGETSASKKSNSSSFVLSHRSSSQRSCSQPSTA

[2] = Aqueous solubility of the compound; format: physicochemical; conditions: buffer
[3] = Distribution coefficient, log D of the compound; format: physicochemical; conditions: chromatographic
[4] = Binding affinity to human serum albumin; format: ADME, cell-free; conditions: read-out: PB (converted)
[5] = target: Cytochrome P450 3A4 (Homo sapiens, UniProt P08684); experiment: Inhibition of CYP3A4; format: ADME
Chain of Cytochrome P450 3A4 (P08684 whole entry): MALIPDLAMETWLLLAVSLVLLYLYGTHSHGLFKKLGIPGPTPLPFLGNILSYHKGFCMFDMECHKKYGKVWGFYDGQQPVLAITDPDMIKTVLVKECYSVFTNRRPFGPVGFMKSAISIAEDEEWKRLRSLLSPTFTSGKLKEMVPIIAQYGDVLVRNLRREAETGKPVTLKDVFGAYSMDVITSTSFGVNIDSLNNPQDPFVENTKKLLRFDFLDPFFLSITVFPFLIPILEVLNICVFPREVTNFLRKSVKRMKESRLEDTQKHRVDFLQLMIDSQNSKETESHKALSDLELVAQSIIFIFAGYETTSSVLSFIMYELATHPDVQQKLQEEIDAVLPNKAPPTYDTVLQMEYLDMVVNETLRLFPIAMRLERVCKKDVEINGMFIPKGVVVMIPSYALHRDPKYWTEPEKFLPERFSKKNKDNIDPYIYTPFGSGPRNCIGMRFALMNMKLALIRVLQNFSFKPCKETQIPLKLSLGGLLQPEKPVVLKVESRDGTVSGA

[6] = Half life in rat at 2 mg/kg, iv or 5 mg/kg, po; format: ADME, organism-based; conditions: in vivo
[7] = Clearance in rat at 2 mg/kg, iv or 5 mg/kg, po; format: ADME, organism-based; conditions: in vivo
[8] = Bioavailability in rat at 2 mg/kg, iv or 5 mg/kg, po; format: ADME, organism-based; conditions: in vivo
[9] = AUC in rat at 5 mg/kg, po in DMSO/PEG400 formulation; format: ADME, organism-based; design: dose 5 mg/kg, route oral; conditions: plasma
[10] = Selectivity for human oxytocin receptor over vasopressin V1a receptor
[11] = AUC in rat at 5 mg/kg, po in HPMC/Tween formulation; format: ADME, organism-based; design: dose 5 mg/kg, route oral; conditions: plasma
[12] = target: T2, Vasopressin V1b receptor (Homo sapiens, UniProt P47901); experiment: Binding affinity to human vasopressin V1b receptor
T2 sequence (P47901 whole entry): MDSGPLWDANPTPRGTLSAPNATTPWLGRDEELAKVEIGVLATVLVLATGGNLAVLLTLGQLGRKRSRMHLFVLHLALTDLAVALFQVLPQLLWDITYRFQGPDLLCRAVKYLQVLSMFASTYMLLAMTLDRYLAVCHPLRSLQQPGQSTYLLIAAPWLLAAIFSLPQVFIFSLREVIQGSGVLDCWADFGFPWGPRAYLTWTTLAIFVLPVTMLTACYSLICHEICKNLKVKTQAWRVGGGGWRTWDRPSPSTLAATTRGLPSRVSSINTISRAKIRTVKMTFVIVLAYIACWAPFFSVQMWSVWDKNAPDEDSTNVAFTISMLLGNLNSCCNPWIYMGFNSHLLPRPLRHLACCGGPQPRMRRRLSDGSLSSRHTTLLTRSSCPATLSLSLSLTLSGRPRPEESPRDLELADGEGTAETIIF

[13] = tested on: Rattus norvegicus; experiment: Decrease in oxytocin-induced uterine contractions in iv dosed non-pregnant Sprague-Dawley rat; format: functional, organism-based
[14] = target: Vasopressin V2 receptor (Homo sapiens, UniProt P30518); experiment: Binding affinity to human vasopressin V2 receptor
Chain of Vasopressin V2 receptor (P30518 whole entry): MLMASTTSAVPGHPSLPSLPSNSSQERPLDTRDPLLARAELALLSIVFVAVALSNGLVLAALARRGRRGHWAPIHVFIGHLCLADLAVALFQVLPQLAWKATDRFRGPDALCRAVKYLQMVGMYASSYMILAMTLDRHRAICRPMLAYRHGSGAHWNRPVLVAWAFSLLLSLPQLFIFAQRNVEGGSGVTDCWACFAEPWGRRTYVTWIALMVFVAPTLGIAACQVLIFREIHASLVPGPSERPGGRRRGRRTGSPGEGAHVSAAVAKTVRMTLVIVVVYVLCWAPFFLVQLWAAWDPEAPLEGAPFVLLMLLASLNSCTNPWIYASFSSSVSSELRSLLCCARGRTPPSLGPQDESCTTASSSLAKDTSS

[15] = target: Vasopressin V1a receptor (Homo sapiens, UniProt P37288); experiment: Binding affinity to human vasopressin V1a receptor
Chain of Vasopressin V1a receptor (P37288 whole entry): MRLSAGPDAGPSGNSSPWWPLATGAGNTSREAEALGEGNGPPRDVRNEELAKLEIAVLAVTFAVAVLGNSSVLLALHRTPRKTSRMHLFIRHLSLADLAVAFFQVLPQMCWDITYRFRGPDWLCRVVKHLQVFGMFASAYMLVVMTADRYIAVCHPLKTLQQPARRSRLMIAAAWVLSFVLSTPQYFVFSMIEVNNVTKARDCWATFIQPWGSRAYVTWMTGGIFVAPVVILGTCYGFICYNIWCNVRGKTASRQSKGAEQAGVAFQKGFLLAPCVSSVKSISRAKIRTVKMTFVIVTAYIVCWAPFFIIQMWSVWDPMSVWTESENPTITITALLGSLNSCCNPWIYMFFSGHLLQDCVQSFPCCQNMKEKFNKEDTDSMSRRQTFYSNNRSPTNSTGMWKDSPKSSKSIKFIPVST

[16] = target: Oxytocin receptor (Rattus norvegicus) (UniProt P70536); experiment: Binding affinity to recombinant oxytocin receptor
Chain of Oxytocin receptor (Rattus norvegicus) (P70536 whole entry, looked up): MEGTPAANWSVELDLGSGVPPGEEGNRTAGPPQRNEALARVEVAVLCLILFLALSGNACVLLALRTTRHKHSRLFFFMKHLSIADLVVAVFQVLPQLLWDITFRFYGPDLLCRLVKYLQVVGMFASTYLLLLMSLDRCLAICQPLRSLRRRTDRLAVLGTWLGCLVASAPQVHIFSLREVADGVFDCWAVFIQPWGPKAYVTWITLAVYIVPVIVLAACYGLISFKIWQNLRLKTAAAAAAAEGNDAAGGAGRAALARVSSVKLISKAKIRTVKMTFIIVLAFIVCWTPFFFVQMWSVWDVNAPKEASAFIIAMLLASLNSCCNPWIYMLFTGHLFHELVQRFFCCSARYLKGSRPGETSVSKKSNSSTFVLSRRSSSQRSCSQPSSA

Row | Structure (SMILES) | Ki ([1]; read-out: Log Ki (converted)) | solubility [2] | fraction unbound [4] | IC50 [5] | other results
1 | Cc1nc([C@H](C(=O)N(C)C)N2C(=O)[C@@H](C3Cc4ccccc4C3)NC(=O)[C@H]2CC(C)C)c(C)o1 | 3.16 nM | – | – | – | –
2 | CC(C)C[C@@H]1C(=O)N[C@H](C2Cc3ccccc3C2)C(=O)N1[C@@H](C(=O)NC(C)C)c1ccc(Br)o1 | 0.794 nM | – | – | – | –
3 | CC(C)C[C@@H]1C(=O)N[C@H](C2Cc3ccccc3C2)C(=O)N1[C@@H](C(=O)NC(C)C)c1ccc(F)cc1F | – | < 1 µg/mL | 0.07 | 4000 nM | logD [3]: 3.4
4 | CC(C)C[C@@H]1C(=O)N[C@H](C2Cc3ccccc3C2)C(=O)N1[C@@H](C(=O)NC(C)(C)C)c1ccoc1 | 12.6 nM | – | – | – | –
5 | CC(C)C[C@@H]1C(=O)N[C@H](C2Cc3ccccc3C2)C(=O)N1[C@@H](C(=O)NC(C)C)c1coc(C(F)(F)F)n1 | 0.158 nM | – | – | – | –
6 | CC(C)C[C@@H]1C(=O)N[C@H](C2Cc3ccccc3C2)C(=O)N1[C@@H](C(=O)NC(C)C)c1cc(Br)cs1 | 1 nM | – | – | – | –
7 | CNC(=O)c1ccc([C@H](C(=O)NC(C)C)N2C(=O)[C@@H](C3Cc4ccccc4C3)NC(=O)[C@H]2CC(C)C)o1 | 39.8 nM | – | – | – | –
8 | CC[C@@H](C)[C@@H]1C(=O)N[C@H](C2Cc3ccccc3C2)C(=O)N1[C@@H](C(=O)N1CCOCC1)c1coc(C)n1 | – | > 220 µg/mL | > 0.2 | > 100000 nM | half-life [6]: 1.3 h; clearance [7]: 14 mL/min/kg; bioavailability [8]: 69%; AUC [9]: 4200 ng·h/mL
9 | Cc1ccc([C@H](C(=O)NC(C)C)N2C(=O)[C@@H](C3Cc4ccccc4C3)NC(=O)[C@H]2CC(C)C)o1 | 1 nM | 34 µg/mL (≈ 73 µM) | 0.04 | 7000 nM | logD [3]: 3.3
10 | CC(C)C[C@@H]1C(=O)N[C@H](C2Cc3ccccc3C2)C(=O)N1[C@@H](C(=O)N(C)C)c1coc(C2CC2)n1 | 0.794 nM | – | – | – | –
11 | Cc1nc([C@H](C(=O)N2CCC2)N2C(=O)[C@@H](C3Cc4ccccc4C3)NC(=O)[C@H]2CC(C)C)co1 | 1.58 nM | > 220 µg/mL | > 0.2 | > 100000 nM | half-life [6]: 1.4 h; clearance [7]: 35 mL/min/kg; bioavailability [8]: 45%; AUC [9]: 1070 ng·h/mL; Selectivity ratio [10]: > 10
12 | Cc1nc([C@H](C(=O)NC(C)C)N2C(=O)[C@@H](C3Cc4ccccc4C3)NC(=O)[C@H]2CC(C)C)co1 | 1.26 nM | > 240 µg/mL | 0.37 | > 100000 nM | logD [3]: 2.5; AUC [9]: 225 ng·h/mL; Selectivity ratio [10]: > 10
13 | Cc1nc([C@H](C(=O)N(C)CCO)N2C(=O)[C@@H](C3Cc4ccccc4C3)NC(=O)[C@H]2CC(C)C)co1 | 1.26 nM | > 220 µg/mL | > 0.2 | > 100000 nM | AUC [9]: 218 ng·h/mL; Selectivity ratio [10]: > 10
14 | CC(C)C[C@@H]1C(=O)N[C@H](C2Cc3ccccc3C2)C(=O)N1[C@@H](C(=O)NC(C)C)c1ccc(C(F)(F)F)o1 | 0.1 nM | < 1 µg/mL | 0.03 | 3000 nM | logD [3]: 3.6
15 | Cc1nc([C@H](C(=O)N(C)C)N2C(=O)[C@@H](C3Cc4ccccc4C3)NC(=O)[C@H]2CC(C)C)cs1 | 0.398 nM | – | – | – | –
16 | CC(C)C[C@@H]1C(=O)N[C@H](C2Cc3ccccc3C2)C(=O)N1[C@@H](C(=O)NC(C)C)c1cccs1 | 6.31 nM | – | – | – | –
17 | Cc1cc([C@H](C(=O)NC(C)C)N2C(=O)[C@@H](C3Cc4ccccc4C3)NC(=O)[C@H]2CC(C)C)oc1C | 1.26 nM | – | – | – | –
18 | CC(C)C[C@@H]1C(=O)N[C@H](C2Cc3ccccc3C2)C(=O)N1[C@@H](C(=O)NC(C)C)c1ccc(Br)s1 | 2 nM | < 1 µg/mL | 0.01 | 1000 nM | logD [3]: 3.7
19 | Cc1nc([C@H](C(=O)N2CCOCC2)N2C(=O)[C@@H](C3Cc4ccccc4C3)NC(=O)[C@H]2CC(C)C)co1 | 2 nM | > 220 µg/mL | > 0.2 | > 100000 nM | half-life [6]: 1.1 h; clearance [7]: 23 mL/min/kg; AUC [11]: 1190 ng·h/mL; bioavailability [8]: 33%; AUC [9]: 3630 ng·h/mL; Selectivity ratio [10]: > 10
20 | CC[C@H](C)[C@@H]1C(=O)N[C@H](C2Cc3ccccc3C2)C(=O)N1[C@@H](C(=O)N1CCOCC1)c1coc(C)n1 [RETOSIBAN] | – | > 220 µg/mL | > 0.2 | > 100000 nM | Ki [12]: > 10000 nM; half-life [6]: 1.4 h; clearance [7]: 19 mL/min/kg; AUC [11]: 1800 ng·h/mL; IC50 [13]: 180 nM; ED50 ([13]; iv, read-out: ID50 (the source's name)): 0.27 mg/kg; Ki [14]: 950 nM; Ki [15]: > 12000 nM; bioavailability [8]: 100%; AUC [9]: 5470 ng·h/mL
21 | CC(C)C[C@@H]1C(=O)N[C@H](C2Cc3ccccc3C2)C(=O)N1[C@@H](C(=O)NC(C)C)c1ccco1 | 6.31 nM | – | – | – | –
22 | CC(C)C[C@@H]1C(=O)N[C@H](C2Cc3ccccc3C2)C(=O)N1[C@@H](C(=O)NC(C)C)c1ccc(-c2ccccn2)s1 | 2.51 nM | – | – | – | –
23 | CCOc1ccc(C[C@H]2NC(=O)CCSSC[C@@H](C(=O)N3CCC[C@H]3C(=O)N[C@@H](CCCN)C(=O)NCC(N)=O)NC(=O)[C@H](CC(N)=O)NC(=O)[C@H]([C@@H](C)O)NC(=O)[C@H]([C@@H](C)CC)NC2=O)cc1 [ATOSIBAN] ([Mpa][dY](Et)ITNCP[Orn]G-NH2; disulfide 1-6) | – | – | – | – | Ki [16]: 32 nM; Ki [12]: 44 nM; Ki ([1]; read-out: Ki): 11 nM; Ki [14]: 330 nM; Ki [15]: 0.15 nM
